System: apherese blood platelets
Test: Apheresis platelets stored with Sul 136, platelet activation with ADP and TRAP by flow cytometry (CD62p)
Assay type: cell-based
Parameters: Flow cytometry ADP / Flow cytometry TRAP: unit not given here
Conditions: for Flow cytometry ADP / Flow cytometry P-selectin MFI / Flow cytometry TRAP: stored at 4° C. with Sul 136
Description: 300 μM suspension of Sul 136 is added with a procedure, which keeps the bag content sterile and the Sul 136 is kept in suspension by frequent whirling and stored at 37° C. before it is added to the freshly harvested platelets. The Sul 136 suspension is added to three platelet bags directly from the bag. After addition, the content of the platelet bag is gently mixed. After 2 hours the first sample is drawn with a seal-docked sample bag. The sample bag is disconnected by welding and from this sample bag the samples are taken for hematology analyzing, aggregometer tests and the flow-cytometry tests. Swirling in the bag is reported by experience of the laboratory worker in the standard format. Platelets without Sul 136 put on a flatbed shaker and stored at room temperature were used as control. Another control is stored at 4° C. Platelet samples in which Sul 136 is added, are stored without shaking in a refrigerator at 4° C.
Platelet activation was performed on a Beckman Coulter FC 500 flowcytometer using CD 41 PE, CD 62p FITC, IgG1 FITC/IgG1 PE antibodies of a Beckman Coulter kit.
40 μl Dilution buffer was brought in about 15 minutes to 37° C.; 10 μl IgG FITC/IgG PE+10 μl CD41 PE was added and mixed with Vortex, incubated 5 min at room temperature; 1000 μl cold HBSS buffer was added; measurement in flowcytometer was performed.
40 μl Dilution buffer was brought in about 15 minutes to 37° C.; 10 μl CD41 PE+5 μl CD62 FITC was added and mixed with Vortex, incubated during 5 min. at room temperature; 1000 μl cold HBSS buffer was added; measurement in flowcytometer was performed.
36 μl Dilution buffer+4 μl ADP was brought in about 15 minutes to 37° C.; 10 μl CD41 PE+5 μl CD62 FITC was added and mixed with Vortex, incubated during 5 min. at room temperature; 1000 μl cold HBSS buffer was added; measurement in flowcytometer was performed.
36 μl Dilution buffer+4 μl TRAP was brought in about 15 minutes to 37° C.; 10 μl CD41 PE+5 μl CD62 FITC was added and mixed with Vortex; incubateed during 5 min. at room temperature; 1000 μl cold HBSS buffer was added; measurement in flowcytometer was performed.

Compound: Cc1c(C)c2c(c(C)c1O)CCC(C)(C(=O)N1CCN(CC(=O)O)CC1)O2 (racemic) [SUL - 136, 2-(4-(6-hydroxy-2,5,7,8-tetramethylchroman-2-carbonyl)piperazin-1-yl)acetic acid]
- Flow cytometry ADP (Donor 2, Day 1): 2.12
- Flow cytometry P-selectin MFI (Donor 2, Day 1): 1.67 MFI
- Flow cytometry TRAP (Donor 2, Day 1): 1.88
- Flow cytometry ADP (Donor 2, Day 2): 2.53
- Flow cytometry P-selectin MFI (Donor 2, Day 2): 2.13 MFI
- Flow cytometry TRAP (Donor 2, Day 2): 2.35
- Flow cytometry ADP (Donor 2, Day 3): 3.21
- Flow cytometry P-selectin MFI (Donor 2, Day 3): 2.59 MFI
- Flow cytometry TRAP (Donor 2, Day 3): 2.76
- Flow cytometry ADP (Donor 2, Day 5): 3.19
- Flow cytometry P-selectin MFI (Donor 2, Day 5): 2.95 MFI
- Flow cytometry TRAP (Donor 2, Day 5): 3.16
- Flow cytometry ADP (Donor 2, Day 8): 3.08
- Flow cytometry P-selectin MFI (Donor 2, Day 8): 2.99 MFI
- Flow cytometry TRAP (Donor 2, Day 8): 3.22
- Flow cytometry ADP (Donor 2, Day 10): 2.83
- Flow cytometry P-selectin MFI (Donor 2, Day 10): 2.76 MFI
- Flow cytometry TRAP (Donor 2, Day 10): 2.96
- Flow cytometry ADP (Donor 2, Day 12): 2.62
- Flow cytometry P-selectin MFI (Donor 2, Day 12): 2.63 MFI
- Flow cytometry TRAP (Donor 2, Day 12): 2.73
- Flow cytometry ADP (Donor 2, Day 19): 1.99
- Flow cytometry P-selectin MFI (Donor 2, Day 19): 2.01 MFI
- Flow cytometry TRAP (Donor 2, Day 19): 2.14
- Flow cytometry ADP (Donor 3, Day 1): 2.71
- Flow cytometry P-selectin MFI (Donor 3, Day 1): 1.90 MFI
- Flow cytometry TRAP (Donor 3, Day 1): 2.08
- Flow cytometry ADP (Donor 3, Day 2): 3.49
- Flow cytometry P-selectin MFI (Donor 3, Day 2): 2.82 MFI
- Flow cytometry TRAP (Donor 3, Day 2): 3.62
- Flow cytometry ADP (Donor 3, Day 3): 4.96
- Flow cytometry P-selectin MFI (Donor 3, Day 3): 3.84 MFI
- Flow cytometry TRAP (Donor 3, Day 3): 4.42
- Flow cytometry ADP (Donor 3, Day 5): 4.84
- Flow cytometry P-selectin MFI (Donor 3, Day 5): 4.50 MFI
- Flow cytometry TRAP (Donor 3, Day 5): 5.04
- Flow cytometry ADP (Donor 3, Day 8): 4.91
- Flow cytometry P-selectin MFI (Donor 3, Day 8): 4.82 MFI
- Flow cytometry TRAP (Donor 3, Day 8): 5.24
- Flow cytometry ADP (Donor 3, Day 10): 4.25
- Flow cytometry P-selectin MFI (Donor 3, Day 10): 4.37 MFI
- Flow cytometry TRAP (Donor 3, Day 10): 5.04
- Flow cytometry ADP (Donor 3, Day 12): 3.84
- Flow cytometry P-selectin MFI (Donor 3, Day 12): 3.89 MFI
- Flow cytometry TRAP (Donor 3, Day 12): 4.20
- Flow cytometry ADP (Donor 3, Day 19): 2.37
- Flow cytometry P-selectin MFI (Donor 3, Day 19): 2.22 MFI
- Flow cytometry TRAP (Donor 3, Day 19): 2.01
- Flow cytometry ADP (donor 1, Day 1): 3.07
- Flow cytometry P-selectin MFI (donor 1, Day 1): 2.09 MFI
- Flow cytometry TRAP (donor 1, Day 1): 3.57
- Flow cytometry ADP (donor 1, Day 2): 3.28
- Flow cytometry P-selectin MFI (donor 1, Day 2): 3.04 MFI
- Flow cytometry TRAP (donor 1, Day 2): 3.78
- Flow cytometry ADP (donor 1, Day 3): 4.12
- Flow cytometry P-selectin MFI (donor 1, Day 3): 3.73 MFI
- Flow cytometry TRAP (donor 1, Day 3): 4.95
- Flow cytometry ADP (donor 1, Day 5): 4.20
- Flow cytometry P-selectin MFI (donor 1, Day 5): 4.12 MFI
- Flow cytometry TRAP (donor 1, Day 5): 5.55
- Flow cytometry ADP (donor 1, Day 8): 4.83
- Flow cytometry P-selectin MFI (donor 1, Day 8): 4.82 MFI
- Flow cytometry TRAP (donor 1, Day 8): 5.52
- Flow cytometry ADP (donor 1, Day 10): 4.46
- Flow cytometry P-selectin MFI (donor 1, Day 10): 4.48 MFI
- Flow cytometry TRAP (donor 1, Day 10): 5.52
- Flow cytometry ADP (donor 1, Day 12): 4.43
- Flow cytometry P-selectin MFI (donor 1, Day 12): 4.57 MFI
- Flow cytometry TRAP (donor 1, Day 12): 4.42
- Flow cytometry ADP (donor 1, Day 19): 2.74
- Flow cytometry P-selectin MFI (donor 1, Day 19): 2.92 MFI
- Flow cytometry TRAP (donor 1, Day 19): 2.76
- flow cytometry tests (stored at 4° C. with compound vs. platelets stored at room temperature): similar

— patent publication US11006626B2, “Compounds for protection of cells” (Sulfateq B.V., priority 2012, dated 2021)
